Assays:
5-LO [1] = target: T1, 5-LO (Homo sapiens, UniProt P09917); test: Test a): in vitro heparinised human blood challenged with calcium ionophore A23187, radioimmunoassay of LTB₄; assay type: cell-based; conditions: A23187 challenge, read-out: IC₅₀ against LTB₄ in test (a)
T1 construct: incubating a test compound with heparinised human blood, prior to challenge with the calcium ionophore A23187; endogenous in cells; host or cells: heparinised human whole blood (blood cells)
T1 sequence (P09917 1-674): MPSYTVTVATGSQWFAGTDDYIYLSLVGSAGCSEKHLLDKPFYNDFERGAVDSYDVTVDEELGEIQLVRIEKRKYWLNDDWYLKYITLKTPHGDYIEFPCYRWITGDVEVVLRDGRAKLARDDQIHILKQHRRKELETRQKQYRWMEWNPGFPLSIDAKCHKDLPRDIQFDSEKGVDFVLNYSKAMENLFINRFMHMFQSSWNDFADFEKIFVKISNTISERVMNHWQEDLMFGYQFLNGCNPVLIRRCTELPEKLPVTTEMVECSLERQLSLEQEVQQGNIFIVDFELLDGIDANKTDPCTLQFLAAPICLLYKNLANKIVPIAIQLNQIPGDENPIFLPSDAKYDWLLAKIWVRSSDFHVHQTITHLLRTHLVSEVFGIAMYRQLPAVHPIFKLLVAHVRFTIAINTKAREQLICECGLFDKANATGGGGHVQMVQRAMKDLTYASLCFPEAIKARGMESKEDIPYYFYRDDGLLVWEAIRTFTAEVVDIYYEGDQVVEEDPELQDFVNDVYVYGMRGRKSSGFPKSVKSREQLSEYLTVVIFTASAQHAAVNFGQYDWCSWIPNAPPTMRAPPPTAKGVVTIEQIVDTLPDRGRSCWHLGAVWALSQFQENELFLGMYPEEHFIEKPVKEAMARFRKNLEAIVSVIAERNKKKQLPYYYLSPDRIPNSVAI
Excerpt: As stated previously, the compounds of the formula I are inhibitors of the enzyme 5-LO. […] J. Pharmacol. 1985, 84, 34P) which involve the use of a protein-LTB₄ conjugate produced using the procedure of Young et alia (Prostaglandins, 1983, 26(4), 605-613). The effects of a test compound on the enzyme cyclooxygenase (which is involved in the alternative metabolic pathway for arachidonic acid and gives rise to prostaglandins, thromboxanes and related metabolites) may be measured at the same time using the specific radioimmunoassay for thromboxane B₂(TxB₂) described by Carey and Forder (see above). This test provides an indication of the effects of a test compound against 5-LO and also cyclooxygenase in the presence of blood cells and proteins. It permits the selectivity of the inhibitory effect on 5-LO or cyclooxygenase to be assessed. • b) An ex vivo assay system, which is a variation of test a) above, involving administration to a group of rats of a test compound (usually orally as the suspension produced when a solution of the test compound in dimethylsulphoxide is added to carboxymethylcellulose), blood collection, heparinisation, challenge with A23187 and radioimmunoassay of LTB₄ and TxB₂. This test provides an indication of the bioavailability of a test compound as an inhibitor of 5-LO or cyclooxygenase. • c) An in vivo system involving measuring the effects of a test compound administered orally against the liberation of LTB₄ induced by zymosan within an air pouch generated within the subcutaneous tissue of the back of male rats. The rats are anaesthetised and air pouches are formed by the injection of sterile air (20ml). A further injection of air (10ml) is similarly given after 3 days. At 6 days after the initial air injection the test compound is administered (usually orally as the suspension produced when a solution of the test compound in dimethylsulphoxide is added to hydroxypropylmethylcellulose), followed by the intrapouch injection of zymosan (1ml of a 1% suspension in physiological saline). After 3 hours the rats are killed, the air pouches are lavaged with physiological saline, and the specific radioimmunoassay described above is used to assay LTB₄ in the washings. This test provides an indication of inhibitory effects against 5-LO in an inflammatory milieu.

5-LO [2] = test: Test c): in vivo zymosan-induced LTB₄ liberation in subcutaneous air pouch; conditions: oral, male rats, 3 hours
Excerpt: As stated previously, the compounds of the formula I are inhibitors of the enzyme 5-LO. […] J. Pharmacol. 1985, 84, 34P) which involve the use of a protein-LTB₄ conjugate produced using the procedure of Young et alia (Prostaglandins, 1983, 26(4), 605-613). The effects of a test compound on the enzyme cyclooxygenase (which is involved in the alternative metabolic pathway for arachidonic acid and gives rise to prostaglandins, thromboxanes and related metabolites) may be measured at the same time using the specific radioimmunoassay for thromboxane B₂(TxB₂) described by Carey and Forder (see above). This test provides an indication of the effects of a test compound against 5-LO and also cyclooxygenase in the presence of blood cells and proteins. It permits the selectivity of the inhibitory effect on 5-LO or cyclooxygenase to be assessed. • b) An ex vivo assay system, which is a variation of test a) above, involving administration to a group of rats of a test compound (usually orally as the suspension produced when a solution of the test compound in dimethylsulphoxide is added to carboxymethylcellulose), blood collection, heparinisation, challenge with A23187 and radioimmunoassay of LTB₄ and TxB₂. […]

SMILES	IC50 (5-LO [1]) [µM]	ED₅₀ versus LTB₄ in test (c) (5-LO [2])
COC1(c2cc(F)cc(Sc3ccc4c(c3)CCC(=O)N4C)c2)CCN(CC(F)(F)F)C1 (stereo not shown) [Example 6, 3-[5-fluoro-3-(1-methyl-2-oxo-1,2,3,4-tetrahydroquinolin-6-ylthio)phenyl]-3-methoxy-1-(2,2,2-trifluoroethyl)pyrrolidine]	0.03	approximately 1.5 mg/kg
COC1(c2cccc(OCc3ccc4ccccc4c3)c2)CCN(C)C1 (stereo not shown) [Example 1, 3-methoxy-1-methyl-3-[3-(naphth-2-ylmethoxy)phenyl]pyrrolidine]	0.21	–
COC1(c2cc(F)cc(Sc3ccc(C(C)=NO)cc3)c2)CCN(CC(F)(F)F)C1 (stereo not shown) [Example 32, 3-{5-fluoro-3-[4-(1-hydroxyiminoethyl)phenylthio]phenyl}-3-methoxy-1-(2,2,2-trifluoroethyl)pyrrolidine]	0.04	approximately 0.5 mg/kg

Now from value to compound, other results behind:

IC50 (5-LO [1]) [µM]	SMILES	ED₅₀ versus LTB₄ in test (c) (5-LO [2])
0.06	C#CCN1CCC(OC)(c2cccc(OCc3ccc4ccccc4c3)c2)C1 (stereo not shown) [Example 4, 3-methoxy-3-[3-(naphth-2-ylmethoxy)phenyl]-1-(prop-2-ynyl)pyrrolidine]	–
0.09	CCn1c(=O)ccc2cc(COc3cccc(C4(OC)CCN(CC(F)(F)F)C4)c3)ccc21 (stereo not shown) [Example 5, 3-[3-(1-ethyl-2-oxo-1,2-dihydroquinolin-6-ylmethoxy)phenyl]-3-methoxy-1-(2,2,2-trifluoroethyl)pyrrolidine]	–

— patent EP0586229A1, “3-Hydroxy-3-(subst-akyl)-pyrrolidines as 5-lipoxygenase inhibitors” (ZENECA LIMITED, priority 1992, dated 1994)
